Measured values: ChEMBL document CHEMBL4387706, “Discovery of Novel Spiroindoline Derivatives as Selective Tankyrase Inhibitors” (J Med Chem, 2019)
≈ marks a conversion by molar mass, not a printed value. Calls of active or inactive are those of the source. The rule behind the calls is not given here.

Tests used:
[1] = target: Tankyrase 1/2 (Homo sapiens) (UniProt Q9H2K2+O95271); test: Inhibition of TNKS/TNKS2 in human COLO320DM cells assessed as upregulation of AXIN2 expression at 0.1 uM measured after 16 hrs by Western blot analysis relative to G007-LK; type: cell-based
in vitro [2] = details: human, liver microsomes
Description: Stability in human liver microsomes assessed as parent compound remaining at 1 uM measured after 30 mins in presence of NADPH by LC-MS/MS analysis

COLO 320DM [3] = test: Antiproliferative activity against human COLO320DM cells assessed inhibition of cell growth measured after 5 days by MTT assay; type: functional; details: 120 h
RKO [4] = test: Antiproliferative activity against human RKO cells assessed reduction in cell viability at 0.3 uM measured after 5 days by MTT assay; type: functional, cell-based
[5] = target: T1, Poly [ADP-ribose] polymerase tankyrase-2 (Homo sapiens, UniProt Q9H2K2)
T1 sequence (Q9H2K2 whole entry): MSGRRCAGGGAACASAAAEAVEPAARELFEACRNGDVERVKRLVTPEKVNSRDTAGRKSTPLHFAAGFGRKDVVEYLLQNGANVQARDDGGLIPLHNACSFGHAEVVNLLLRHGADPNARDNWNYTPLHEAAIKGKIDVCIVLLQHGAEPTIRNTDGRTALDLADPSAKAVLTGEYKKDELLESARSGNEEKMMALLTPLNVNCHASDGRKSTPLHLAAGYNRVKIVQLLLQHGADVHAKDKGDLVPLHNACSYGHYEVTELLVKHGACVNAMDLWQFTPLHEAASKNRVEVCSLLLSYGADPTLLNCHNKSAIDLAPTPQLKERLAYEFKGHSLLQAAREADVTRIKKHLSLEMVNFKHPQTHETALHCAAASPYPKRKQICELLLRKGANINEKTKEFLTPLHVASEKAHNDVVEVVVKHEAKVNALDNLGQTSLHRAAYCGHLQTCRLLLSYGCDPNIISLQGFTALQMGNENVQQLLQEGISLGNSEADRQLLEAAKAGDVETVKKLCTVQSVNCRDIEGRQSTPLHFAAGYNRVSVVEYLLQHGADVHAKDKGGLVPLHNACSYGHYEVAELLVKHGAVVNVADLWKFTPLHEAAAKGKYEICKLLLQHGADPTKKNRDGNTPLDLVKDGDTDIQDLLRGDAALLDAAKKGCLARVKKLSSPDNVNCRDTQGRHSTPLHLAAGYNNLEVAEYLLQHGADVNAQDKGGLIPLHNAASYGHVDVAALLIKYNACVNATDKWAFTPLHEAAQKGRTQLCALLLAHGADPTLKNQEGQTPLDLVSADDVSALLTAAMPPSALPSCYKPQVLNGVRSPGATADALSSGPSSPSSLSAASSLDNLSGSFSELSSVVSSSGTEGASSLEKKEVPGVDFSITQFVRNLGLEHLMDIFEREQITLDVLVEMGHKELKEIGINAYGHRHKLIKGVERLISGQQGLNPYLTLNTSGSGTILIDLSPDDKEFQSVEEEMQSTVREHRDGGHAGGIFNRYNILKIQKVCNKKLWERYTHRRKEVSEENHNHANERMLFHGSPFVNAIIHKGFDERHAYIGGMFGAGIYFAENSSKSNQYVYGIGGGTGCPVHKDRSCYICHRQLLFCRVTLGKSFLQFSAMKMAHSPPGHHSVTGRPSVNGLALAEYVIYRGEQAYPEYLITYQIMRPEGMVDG
Description: Inhibition of recombinant human N-terminal TEV cleavage site-fused/FLAG-poly his-tagged TNKS2 SAM-PARP domain (613 to 1166 residues) expressed in Escherichia coli assessed as reduction in auto-PARylation preincubated for 10 mins followed by biotinylated-NAD+ addition and measured after 45 mins by ELISA

physchem = details: phosphate buffer, pH 7.4
[6] = target: Poly [ADP-ribose] polymerase 1 (Homo sapiens, UniProt P09874)
Description: Inhibition of recombinant human PARP1 expressed in Escherichia coli assessed as reduction in auto-PARylation using histone as substrate measured after 45 mins in presence of biotinylated-NAD+ by ELISA

[7] = target: T2, Poly [ADP-ribose] polymerase tankyrase-1 (Homo sapiens, UniProt O95271)
T2 sequence (O95271 whole entry): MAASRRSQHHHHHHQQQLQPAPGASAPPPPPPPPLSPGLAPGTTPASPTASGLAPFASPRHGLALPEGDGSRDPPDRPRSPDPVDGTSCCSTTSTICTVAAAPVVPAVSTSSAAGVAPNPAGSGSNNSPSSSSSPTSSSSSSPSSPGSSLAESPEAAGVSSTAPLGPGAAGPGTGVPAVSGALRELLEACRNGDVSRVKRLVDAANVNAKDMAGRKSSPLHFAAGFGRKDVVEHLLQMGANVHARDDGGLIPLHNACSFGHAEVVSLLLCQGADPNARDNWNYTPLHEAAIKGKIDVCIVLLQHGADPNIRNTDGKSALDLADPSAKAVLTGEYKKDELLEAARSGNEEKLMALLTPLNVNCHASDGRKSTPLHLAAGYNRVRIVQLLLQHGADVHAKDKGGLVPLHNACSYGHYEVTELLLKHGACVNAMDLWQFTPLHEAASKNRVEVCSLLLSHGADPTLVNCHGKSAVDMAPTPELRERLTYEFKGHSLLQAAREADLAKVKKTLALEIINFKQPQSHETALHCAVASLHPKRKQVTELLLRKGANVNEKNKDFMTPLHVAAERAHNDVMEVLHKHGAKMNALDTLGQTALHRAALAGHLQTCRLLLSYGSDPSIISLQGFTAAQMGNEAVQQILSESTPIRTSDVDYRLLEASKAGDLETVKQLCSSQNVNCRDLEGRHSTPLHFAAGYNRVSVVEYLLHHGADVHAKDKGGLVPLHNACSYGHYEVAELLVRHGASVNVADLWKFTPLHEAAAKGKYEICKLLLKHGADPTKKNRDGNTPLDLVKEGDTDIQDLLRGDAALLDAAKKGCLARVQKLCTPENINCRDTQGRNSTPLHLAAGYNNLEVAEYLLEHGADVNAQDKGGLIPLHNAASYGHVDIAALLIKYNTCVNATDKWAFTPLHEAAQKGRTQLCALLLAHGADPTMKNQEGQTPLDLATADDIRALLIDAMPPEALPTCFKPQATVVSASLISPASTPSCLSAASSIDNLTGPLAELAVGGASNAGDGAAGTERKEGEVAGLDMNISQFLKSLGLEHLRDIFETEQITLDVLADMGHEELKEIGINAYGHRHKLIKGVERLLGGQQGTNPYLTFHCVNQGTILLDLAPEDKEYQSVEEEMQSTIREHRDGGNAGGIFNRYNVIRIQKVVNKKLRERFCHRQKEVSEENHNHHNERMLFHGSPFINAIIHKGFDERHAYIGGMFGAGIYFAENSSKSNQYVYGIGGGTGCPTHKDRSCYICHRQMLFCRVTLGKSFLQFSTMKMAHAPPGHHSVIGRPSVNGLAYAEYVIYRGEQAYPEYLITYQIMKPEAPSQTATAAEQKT
Description: Inhibition of recombinant human N-terminal TEV cleavage site-fused/FLAG-poly his-tagged TNKS SAM-PARP domain (1024 to 1327 residues) expressed in Escherichia coli assessed as reduction in auto-PARylation preincubated for 10 mins followed by biotinylated-NAD+ addition and measured after 45 mins by ELISA

[8] = Protein binding in human serum assessed as unbound fraction at 1 uM measured after 24 hrs by LC-MS/MS analysis; type: ADME, cell-free
[9] = Protein binding in mouse serum assessed as unbound fraction at 1 uM measured after 24 hrs by LC-MS/MS analysis; type: ADME, cell-free
RKO [10] = test: Antiproliferative activity against human RKO cells assessed inhibition of cell growth measured after 5 days by MTT assay; type: functional; details: 120 h
COLO 320DM [11] = test: cells; details: Homo sapiens, 96 h
Description: Antiproliferative activity against human COLO320DM cells assessed as inhibition of cell growth measured after 4 days by CellTiter-Glo assay

[12] = AUC (infinity) in ICR mouse at 50 mg/kg, ip; type: ADME, organism-based; design: dose 50 mg/kg, route intraperitoneal, time infinity; details: in vivo
[13] = Cmax in ICR mouse at 50 mg/kg, ip; type: ADME, organism-based; design: dose 50 mg/kg, route intraperitoneal; details: in vivo
in vitro [14] = details: mouse, liver microsomes
Description: Stability in mouse liver microsomes assessed as parent compound remaining at 1 uM measured after 30 mins in presence of NADPH by LC-MS/MS analysis

Tankyrase 1/2 = target: T3, Tankyrase 1/2 (Homo sapiens, UniProt Q9H2K2+O95271)
T3 sequence (Q9H2K2 whole entry): T1 sequence (Q9H2K2 whole entry)
T3 sequence (O95271 whole entry): T2 sequence (O95271 whole entry)
Description: Inhibition of TNKS/TNKS2 (unknown origin) expressed in human DLD1 cells assessed as reduction in Wnt-signaling measured after 24 hrs by TCF-luciferase reporter gene assay

[15] = Half life in ICR mouse at 50 mg/kg, ip; type: ADME, organism-based; details: in vivo
[16] = Permeability of the compound by PAMPA; type: ADME; details: read-out: permeability

Chain of Poly [ADP-ribose] polymerase 1 (P09874 whole entry): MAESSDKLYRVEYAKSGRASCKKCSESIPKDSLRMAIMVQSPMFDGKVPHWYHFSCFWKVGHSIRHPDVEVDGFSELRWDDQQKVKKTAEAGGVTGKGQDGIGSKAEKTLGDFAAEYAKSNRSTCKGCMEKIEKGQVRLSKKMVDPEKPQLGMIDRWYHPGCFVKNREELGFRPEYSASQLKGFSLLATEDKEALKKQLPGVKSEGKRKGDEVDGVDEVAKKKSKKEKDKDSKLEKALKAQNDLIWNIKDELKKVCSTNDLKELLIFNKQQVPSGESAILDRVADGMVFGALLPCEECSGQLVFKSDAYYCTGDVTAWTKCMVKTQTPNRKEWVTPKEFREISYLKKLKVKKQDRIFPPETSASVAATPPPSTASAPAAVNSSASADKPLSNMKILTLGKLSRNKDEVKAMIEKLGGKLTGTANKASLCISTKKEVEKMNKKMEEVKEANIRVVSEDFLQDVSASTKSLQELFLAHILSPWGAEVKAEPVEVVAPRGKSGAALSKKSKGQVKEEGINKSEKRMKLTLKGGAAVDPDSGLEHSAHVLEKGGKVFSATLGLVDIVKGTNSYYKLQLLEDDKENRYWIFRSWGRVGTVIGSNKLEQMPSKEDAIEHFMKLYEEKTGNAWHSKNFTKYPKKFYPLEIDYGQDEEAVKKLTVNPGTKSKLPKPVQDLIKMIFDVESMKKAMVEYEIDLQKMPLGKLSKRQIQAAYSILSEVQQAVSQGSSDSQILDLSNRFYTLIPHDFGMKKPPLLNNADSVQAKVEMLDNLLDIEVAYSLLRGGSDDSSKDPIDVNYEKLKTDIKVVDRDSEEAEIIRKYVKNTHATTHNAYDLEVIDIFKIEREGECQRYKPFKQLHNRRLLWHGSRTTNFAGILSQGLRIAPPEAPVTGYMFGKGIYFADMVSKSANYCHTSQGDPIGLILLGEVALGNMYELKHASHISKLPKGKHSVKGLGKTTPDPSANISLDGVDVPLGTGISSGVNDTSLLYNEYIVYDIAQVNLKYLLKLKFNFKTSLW

SMILES: O=c1[nH]c(N2CCC3(CC2)CN(CCO)c2cccc(Cl)c23)nc2c1CCCC2
- fold change (FC) [1]: 4.86
- remaining at 0.5 h, 1 µM (in vitro [2]): 6.1%
- GI50 (COLO 320DM [3]): 300 nM
- Activity (RKO [4]): Active
- IC50 [5]: 17 nM
- solubility at 1 h, 200 µM (physchem): 2.5 µg/mL (≈ 6.03 µM)
- IC50 [6]: > 20000 nM
- IC50 [7]: 16.6 nM
- fraction unbound at 24 h, 1 µM [8]: 0.009
- fraction unbound at 24 h, 1 µM [9]: 0.01
- GI50 (RKO [10]): > 10000 nM
- GI50 (COLO 320DM [11]): 1500 nM
- AUC(0-inf) [12]: 667 µM·h
- Cmax [13]: 75.6 µM
- remaining at 0.5 h, 1 µM (in vitro [14]): 1.1%
- IC50 (Tankyrase 1/2): 52.9 nM
- half-life [15]: 4.8 h

SMILES: Oc1nc(-c2ccc(C(F)(F)F)cc2)nc2c1CSCC2
- remaining at 0.5 h, 1 µM (in vitro [2]): 78.4%
- solubility at 1 h, 200 µM (physchem): 0.4 µg/mL (≈ 1.28 µM)
- Fu ([8]; 24 h, 1 µM): 0.6%
- fraction unbound at 24 h, 1 µM [9]: 0.086
- GI50 (COLO 320DM [11]): 17000 nM
- Papp [16]: 3.24 ×10⁻⁶ cm/s
- remaining at 0.5 h, 1 µM (in vitro [14]): 0%

SMILES: O=C1N(CCO)c2cccc(Cl)c2C12CCN(c1nc3c(c(=O)[nH]1)CCCC3)CC2
- fold change (FC) [1]: 5.75
- remaining at 0.5 h, 1 µM (in vitro [2]): 28.9%
- GI50 (COLO 320DM [3]): 250 nM
- Activity (RKO [4]): Active
- IC50 [5]: 6.8 nM
- solubility at 1 h, 200 µM (physchem): 84.5 µg/mL (≈ 197 µM)
- IC50 [6]: > 20000 nM
- IC50 [7]: 4.4 nM
- fraction unbound at 24 h, 1 µM [8]: 0.018
- fraction unbound at 24 h, 1 µM [9]: 0.042
- GI50 (RKO [10]): > 10000 nM
- GI50 (COLO 320DM [11]): 1000 nM
- Papp [16]: 1.1 ×10⁻⁶ cm/s
- AUC(0-inf) [12]: 157 µM·h
- Cmax [13]: 5.35 µM
- remaining at 0.5 h, 1 µM (in vitro [14]): 19.1%
- IC50 (Tankyrase 1/2): 13.9 nM
- half-life [15]: 4.1 h

SMILES: O=C1N(CCO)c2cc(F)cc(F)c2C12CCN(c1nc3c(c(=O)[nH]1)CCCC3)CC2
- fold change (FC) [1]: 3.93
- remaining at 0.5 h, 1 µM (in vitro [2]): 39.5%
- GI50 (COLO 320DM [3]): 470 nM
- Activity (RKO [4]): Active
- IC50 [5]: 15.1 nM
- solubility at 1 h, 200 µM (physchem): 76.9 µg/mL (≈ 179 µM)
- IC50 [6]: > 20000 nM
- IC50 [7]: 10 nM
- fraction unbound at 24 h, 1 µM [8]: 0.017
- fraction unbound at 24 h, 1 µM [9]: 0.077
- GI50 (RKO [10]): > 10000 nM
- GI50 (COLO 320DM [11]): 2400 nM
- Papp [16]: 7.9 ×10⁻⁶ cm/s
- AUC(0-inf) [12]: 106 µM·h
- Cmax [13]: 48.1 µM
- remaining at 0.5 h, 1 µM (in vitro [14]): 39.1%
- IC50 (Tankyrase 1/2): 79.4 nM
- half-life [15]: 3.6 h
